Assay results as given in the PolyMetriX glass transition set.

glass transition temperature	Compound
142.00 °C	*=Nc1ccc(Cc2ccc(NC(=*)C)cc2)cc1 (repeat unit)
110.00 °C	*=Nc1ccc(Cc2ccc(NC(=*)CCC)cc2)cc1 (repeat unit)
178.00 °C	*=Nc1cccc(/N=C(/C=C/C(=*)c2ccccc2)c2ccccc2)c1 (repeat unit)
109.00 °C	*CC(*)(C)C(=O)OCCOc1ccc(/N=N/c2ccc(C#N)cc2)cc1 (repeat unit)
261.00 °C	*CC(*)(C)C(=O)OCC[N+](C)(C)CCCCS(=O)(=O)O (repeat unit)
209.50 °C	*CC(*)(C)C(=O)OCCc1ccc(/N=N/c2ccc(OC(F)(F)F)cc2)cc1 (repeat unit)
163.00 °C	*CC(*)(C)C(=O)OCc1ccc(/C=C/C(=O)C2c3ccccc3C(=O)c3ccccc32)cc1 (repeat unit)
34.5 °C	*CC(*)(C)C(=O)OCc1ccc(Cl)c(Cl)c1 (repeat unit)
-33.00 °C	*CC(*)(C)C(=O)OCc1ccc(OCCOCCOCC)c(OCCOCCOCC)c1 (repeat unit)
-92.00 °C	*CC(*)(C)C(=O)OCc1ccc(OCCOCCOCCOCC)c(OCCOCCOCCOCC)c1 (repeat unit)
38.00 °C	*CC(*)(C)C(=O)OCc1ccc2c(c1)OCCOCCOCCOCCO2 (repeat unit)
136.00 °C	*CC(*)(C)C(=O)OCc1ccc2c(c1)c1ccccc1n2CC (repeat unit)
25.00 °C	*CC(*)(C)C(=O)OCc1ccc2c(c1)c1ccccc1n2CCCCCCCCCCCC (repeat unit)
23.00 °C	*CC(*)(C)C(=O)OCc1ccc2c(c1)c1ccccc1n2CCCCCCCCCCCCCCCC (repeat unit)
42.60 °C	*CC(*)(C)C(=O)OCc1cccc(Cl)c1Cl (repeat unit)
156.00 °C	*CC(*)(C)C(=O)Oc1ccc(-c2nnc(-c3ccc(C(C)(C)C)cc3)o2)cc1 (repeat unit)
120.00 °C	*CC(*)(C)C(=O)Oc1ccc(/N=N/c2ccc(OC)cc2)cc1 (repeat unit)
145.00 °C	*CC(*)(C)C(=O)Oc1ccc(/N=N/c2ccc([N+](=O)[O-])cc2)cc1 (repeat unit)
137.00 °C	*CC(*)(C)C(=O)Oc1ccc(C(=O)/C=C/c2ccc(OC)c(OC)c2)cc1 (repeat unit)
72.00 °C	*CC(*)(C)C(=O)Oc1ccc(C(=O)Oc2ccc(C(=O)c3ccccc3)cc2)cc1 (repeat unit)
270.00 °C	*CC(*)(C)C(=O)Oc1ccc(C(=O)c2ccccc2)c(O)c1 (repeat unit)

glass transition temperature	Compound
118.00 °C	*CC(*)(C)C(=O)Oc1ccc(C(=O)c2ccccc2)cc1 (repeat unit)
131.00 °C	*CC(*)(C)C(=O)Oc1ccc(CC#N)cc1 (repeat unit)
101.00 °C	*CC(*)(C)C(=O)Oc1ccc([N+](=O)[O-])c(C)c1 (repeat unit)
113.50 °C	*CC(*)(C)C(=O)Oc1ccc2c(c1)CCC2 (repeat unit)
100.00 °C	*CC(*)(CC(=O)OC(C)C)C(=O)OC(C)C (repeat unit)
197.00 °C	*CC(*)(CC(=O)OC)C(=O)OC12CC3CC(CC(C3)C1)C2 (repeat unit)
60.00 °C	*CC(*)(CC(=O)OC1CCC1)C(=O)OC1CCC1 (repeat unit)
83.00 °C	*CC(*)(CC(=O)OCC1CCCCC1)C(=O)OCC1CCCCC1 (repeat unit)
48.00 °C	*CC(*)(CC(=O)OCCC1CCCCC1)C(=O)OCCC1CCCCC1 (repeat unit)
24.00 °C	*CC(*)(CC(=O)OCCCC)C(=O)OCCCC (repeat unit)
7.00 °C	*CC(*)(CC(=O)OCCCC1CCCCC1)C(=O)OCCCC1CCCCC1 (repeat unit)
-7.00 °C	*CC(*)(CC(=O)OCCCCCC)C(=O)OCCCCCC (repeat unit)
-8.00 °C	*CC(*)(CC(=O)OCCCc1ccccc1)C(=O)OCCCc1ccccc1 (repeat unit)
43.00 °C	*CC(*)(CC(=O)OCCCl)C(=O)OCCCl (repeat unit)
-40.50 °C	*CC(*)(CC(=O)OCCOCCOC)C(=O)OCCOCCOC (repeat unit)
55.00 °C	*CC(*)(CC(=O)OCc1ccccc1)C(=O)OCc1ccccc1 (repeat unit)
94.50 °C	*CC(*)(CC(=O)Oc1ccc(OCCC)cc1)C(=O)Oc1ccc(OCCC)cc1 (repeat unit)
61.00 °C	*CC(*)(Cl)C(=O)OCCC(F)(F)C(F)(F)C(F)(F)C(F)(F)C(F)(F)C(F)(F)C(F)(F)C(F)(F)F (repeat unit)
102.00 °C	*CC(*)(F)C(=O)OC(C(F)(F)F)C(F)(F)F (repeat unit)
75.00 °C	*CC(*)(F)C(=O)OCC(F)(F)C(F)(F)C(F)(F)F (repeat unit)
87.50 °C	*CC(*)(F)C(=O)OCCC(F)(F)C(F)(F)C(F)(F)C(F)(F)C(F)(F)C(F)(F)C(F)(F)C(F)(F)F (repeat unit)

glass transition temperature	Compound
53.00 °C	*CC(*)(F)C(=O)OCCC(F)(F)C(F)(F)C(F)(F)C(F)(F)C(F)(F)C(F)(F)F (repeat unit)
55.00 °C	*CC(*)C(=O)Nc1ccc(C(=O)/C=C/c2cccc(Br)c2)cc1 (repeat unit)
10.00 °C	*CC(*)C(=O)OC(F)(C(F)(F)F)C(F)(F)F (repeat unit)
9.00 °C	*CC(*)C(=O)OC(F)(F)C(F)(F)C(F)(F)C(F)(F)C(F)(F)C(F)(F)C(F)(F)C(F)(F)F (repeat unit)
100.00 °C	*CC(*)C(=O)OC1CC2CCC1(C)C2(C)C (repeat unit)
48.00 °C	*CC(*)C(=O)OCC(COC(=O)c1ccccc1)(COC(=O)c1ccccc1)COC(=O)c1ccccc1 (repeat unit)
-17.00 °C	*CC(*)C(=O)OCC(F)(F)C(F)(F)C(F)(F)C(F)(F)C(F)(F)C(F)(F)C(F)(F)F (repeat unit)
-68.00 °C	*CC(*)C(=O)OCC(F)(F)C(F)(F)OC(F)(F)C(F)(F)C(F)(F)F (repeat unit)
38.00 °C	*CC(*)C(=O)OCCCCCC(=O)Oc1ccc(-c2ccc(C#N)cc2)cc1 (repeat unit)
29.00 °C	*CC(*)C(=O)OCCCCCCCCCCOc1cnc(-c2ccc(OC(=O)C3COC(C)(C)O3)cc2)nc1 (repeat unit)
15.00 °C	*CC(*)C(=O)OCCCCCCCCCOC(=O)c1ccc(OC(=O)c2ccc(C#N)cc2)cc1 (repeat unit)
15.00 °C	*CC(*)C(=O)OCCCCCCCCOC(=O)c1ccc(OC(=O)c2ccc(C#N)cc2)cc1 (repeat unit)
12.00 °C	*CC(*)C(=O)OCCCCCCCCn1c2ccccc2c2ccccc21 (repeat unit)
45.00 °C	*CC(*)C(=O)OCCCCCCOc1ccc(-c2ccc(C#N)cc2)cc1 (repeat unit)
29.50 °C	*CC(*)C(=O)OCCCCCCOc1ccc(C(=O)Oc2ccc(OC)cc2)cc1 (repeat unit)
195.00 °C	*Oc1ccc(-c2ccc(Oc3ccc(/C(=N/c4ccc(/N=C(\c5ccccc5)c5ccc(*)cc5)cc4)c4ccccc4)cc3)cc2)cc1 (repeat unit)
198.00 °C	*Oc1ccc(/C(=N/c2ccc(/N=C(\c3ccccc3)c3ccc(Oc4ccc(C(c5ccccc5)(c5ccccc5)c5ccc(*)cc5)cc4)cc3)cc2)c2ccccc2)cc1 (repeat unit)
162.00 °C	*Oc1ccc(Oc2ccc(/C(=N/c3ccc(Oc4ccc(/N=C(\c5ccccc5)c5ccc(*)cc5)cc4)cc3)c3ccccc3)cc2)cc1 (repeat unit)
171.00 °C	*Oc1ccc2ccc(Oc3ccc(/C(=N/c4ccc(/N=C(\c5ccccc5)c5ccc(*)cc5)cc4)c4ccccc4)cc3)cc2c1 (repeat unit)

Compound	glass transition temperature
*/C(C)=C(/*)SCCCCCC (repeat unit)	110.00 °C
*CC(*)(C)C(=O)OCc1cccs1 (repeat unit)	66.00 °C
*CC(*)(C)C(=O)Oc1c(C)cccc1C (repeat unit)	167.00 °C
*CC(*)(C)c1ccc2ccccc2c1 (repeat unit)	208.00 °C
*CC(*)(CC(=O)OC)C(=O)OC (repeat unit)	95.00 °C
*CC(*)(CC)C(=O)OCC (repeat unit)	27.00 °C
*CC(*)(CCC)C(=O)OC (repeat unit)	83.50 °C
*CC(*)(CCCCCCCC)C(=O)OC (repeat unit)	34.00 °C
*CC(*)(Cl)C(=O)OCCCC (repeat unit)	42.00 °C
*CC(*)(F)C(=O)OCC (repeat unit)	94.00 °C
*CC(*)(F)C(=O)OCC(Cl)(Cl)Cl (repeat unit)	127.00 °C
*CC(*)(F)C(=O)OCC(F)(F)F (repeat unit)	124.00 °C
*CC(*)(F)C(=O)OCCC (repeat unit)	62.00 °C
*CC(*)(F)C(C)=O (repeat unit)	142.00 °C
*CC(*)C(=O)NC (repeat unit)	171.00 °C
*CC(*)C(=O)NC(C)(C)CC(C)=O (repeat unit)	72.50 °C
*CC(*)C(=O)NCP(=O)(O)O (repeat unit)	26.00 °C
*CC(*)C(=O)Nc1ccc(Cl)cc1 (repeat unit)	76.00 °C
*CC(*)C(=O)Nc1cccc(Cl)c1 (repeat unit)	70.00 °C
*CC(*)C(=O)OC([2H])([2H])[2H] (repeat unit)	35.00 °C
*CC(*)C(=O)OCC(C)(C)C (repeat unit)	22.00 °C
*CC(*)C(=O)OCC(F)(F)C(F)(F)F (repeat unit)	-26.00 °C
